# Assay results reported in patent US10597388B2, “Pyridazinone herbicides” (FMC CORPORATION, priority 2014, dated 2020).
# Tests used:
# Test in all cases: Test D controlled growth environment herbicide test, pre- and postemergence
# Type in all cases: in vivo
# [1] = tested on: ryegrass, Italian (Italian ryegrass, Lolium multiflorum)
# Outline: (§1)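 Species sown in silt loam and sprayed preemergence, or grown in peat-based medium to 2–18 cm (1- to 4-leaf stage) and sprayed postemergence, with compounds in non-phytotoxic solvent plus surfactant. Visual injury scored versus controls after 14–21 d in a controlled environment, 0 (no effect) to 100 (complete control).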
# [2] = tested on: foxtail, green (green foxtail, Setaria viridis)
# Outline: as §1
# [3] = tested on: mustard, wild (wild mustard, Sinapis arvensis)
# Outline: as §1
# [4] = tested on: pigweed (Amaranthus retroflexus)
# Outline: as §1
# [5] = tested on: blackgrass (Alopecurus myosuroides)
# Outline: as §1
# [6] = tested on: windgrass (Apera spica-venti)
# Outline: as §1
# kochia (Kochia scoparia) = tested on: kochia (Kochia scoparia)
# Outline: as §1
# [7] = tested on: speedwell (bird's-eye speedwell, Veronica persica)
# Outline: as §1
# [8] = tested on: oilseed rape (Brassica napus)
# Outline: as §1
# [9] = tested on: bromegrass, downy (downy bromegrass, Bromus tectorum)
# Outline: as §1
# [10] = tested on: deadnettle (henbit deadnettle, Lamium amplexicaule)
# Outline: as §1
# [11] = tested on: buckwheat, wild (wild buckwheat, Polygonum convolvulus)
# Outline: as §1
# [12] = tested on: galium (catchweed bedstraw, Galium aparine)
# Outline: as §1
# [13] = tested on: chamomile (scentless chamomile, Matricaria inodora)
# Outline: as §1
# [14] = Postemergence, 31 g ai/ha, scale 0 to 100 (0 no effect, 100 complete control)
# [15] = Postemergence, 125 g ai/ha, visual rating on scale 0 (no effect) to 100 (complete control), 14 to 21 d
# [16] = Postemergence, 250 g ai/ha, scale 0 to 100 (0 no effect, 100 complete control)
# [17] = Preemergence, 125 g ai/ha, scale 0 to 100 (0 no effect, 100 complete control)
# [18] = Preemergence, 250 g ai/ha, scale 0 to 100, 0 no effect, 100 complete control
# [19] = postemergence, 62 g ai/ha, scale 0 to 100, 0 no effect, 100 complete control
# [20] = Preemergence, 62 g ai/ha, scale 0 to 100 (0 no effect, 100 complete control)
structure (smiles),measurement,setting,value
Cc1nn(C)c(=O)c(-c2cccc3ccc(Br)cc23)c1O [Compound 126],"Ryegrass, Italian plant response rating",[1]; [14],85
same,"Plant response rating, Ryegrass, Italian",[1]; [15],90
same,"Plant response rating, Ryegrass, Italian",[1]; [16],90
same,"Plant response rating (scale of 0 to 100), Ryegrass, Italian","[1]; Preemergence, 31 g ai/ha",75
same,"Plant response rating (scale of 0 to 100), Ryegrass, Italian","[1]; Preemergence, 62 g ai/ha",90
same,"Plant response rating, Ryegrass, Italian",[1]; [17],98
same,"Plant response rating, Ryegrass, Italian",[1]; [18],100
same,"Plant response rating, Ryegrass, Italian",[1]; [19],90
same,"Foxtail, Green plant response rating",[2]; [14],10
same,"Plant response rating, Foxtail, Green",[2]; [15],25
same,"Plant response rating, Foxtail, Green",[2]; [16],25
same,"Plant response rating (scale of 0 to 100), Foxtail, Green","[2]; Preemergence, 31 g ai/ha",20
same,"Plant response rating (scale of 0 to 100), Foxtail, Green","[2]; Preemergence, 62 g ai/ha",20
same,"Plant response rating, Foxtail, Green",[2]; [17],25
same,"Plant response rating, Foxtail, Green",[2]; [18],45
same,"Plant response rating, Foxtail, Green",[2]; [19],10
same,"Mustard, Wild plant response rating",[3]; [14],80
same,"Plant response rating, Mustard, Wild",[3]; [15],90
same,"Plant response rating, Mustard, Wild",[3]; [16],100
same,"Plant response rating (scale of 0 to 100), Mustard, Wild","[3]; Preemergence, 31 g ai/ha",60
same,"Plant response rating (scale of 0 to 100), Mustard, Wild","[3]; Preemergence, 62 g ai/ha",70
same,"Plant response rating, Mustard, Wild",[3]; [17],70
same,"Plant response rating, Mustard, Wild",[3]; [18],98
same,"Plant response rating, Mustard, Wild",[3]; [19],80
same,Pigweed plant response rating,[4]; [14],98
same,"Plant response rating, Pigweed",[4]; [15],98
same,"Plant response rating, Pigweed",[4]; [16],98
same,"Plant response rating (scale of 0 to 100), Pigweed","[4]; Preemergence, 31 g ai/ha",98
same,"Plant response rating (scale of 0 to 100), Pigweed","[4]; Preemergence, 62 g ai/ha",100
same,"Plant response rating, Pigweed",[4]; [17],100
same,"Plant response rating, Pigweed",[4]; [18],100
same,"Plant response rating, Pigweed",[4]; [19],100
same,Blackgrass plant response rating,[5]; [14],15
same,"Plant response rating, Blackgrass",[5]; [15],30
same,"Plant response rating, Blackgrass",[5]; [16],45
same,"Plant response rating (scale of 0 to 100), Blackgrass","[5]; Preemergence, 31 g ai/ha",25
same,"Plant response rating, Blackgrass",[5]; [20],45
same,"Plant response rating, Blackgrass",[5]; [17],55
same,"Plant response rating, Blackgrass",[5]; [18],65
same,"Plant response rating, Blackgrass",[5]; [19],20
same,Windgrass plant response rating,[6]; [14],0
same,"Plant response rating, Windgrass",[6]; [15],30
same,"Plant response rating, Windgrass",[6]; [16],55
same,"Plant response rating (scale of 0 to 100), Windgrass","[6]; Preemergence, 31 g ai/ha",25
same,"Plant response rating (scale of 0 to 100), Windgrass","[6]; Preemergence, 62 g ai/ha",35
same,"Plant response rating, Windgrass",[6]; [17],75
same,"Plant response rating, Windgrass",[6]; [18],85
same,"Plant response rating, Windgrass",[6]; [19],20
same,Kochia plant response rating,kochia (Kochia scoparia); [14],75
same,"Plant response rating, Kochia",kochia (Kochia scoparia); [15],95
same,"Plant response rating, Kochia",kochia (Kochia scoparia); [16],100
same,"Plant response rating (scale of 0 to 100), Kochia","kochia (Kochia scoparia); Preemergence, 31 g ai/ha",10
same,"Plant response rating (scale of 0 to 100), Kochia","kochia (Kochia scoparia); Preemergence, 62 g ai/ha",20
same,"Plant response rating, Kochia",kochia (Kochia scoparia); [17],75
same,"Plant response rating, Kochia",kochia (Kochia scoparia); [18],95
same,"Plant response rating, Kochia",kochia (Kochia scoparia); [19],80
same,Speedwell plant response rating,[7]; [14],60
same,"Plant response rating, Speedwell",[7]; [15],100
same,"Plant response rating, Speedwell",[7]; [16],100
same,"Plant response rating (scale of 0 to 100), Speedwell","[7]; Preemergence, 31 g ai/ha",70
same,"Plant response rating (scale of 0 to 100), Speedwell","[7]; Preemergence, 62 g ai/ha",100
same,"Plant response rating, Speedwell",[7]; [17],100
same,"Plant response rating, Speedwell",[7]; [18],100
same,"Plant response rating, Speedwell",[7]; [19],65
same,Oilseed Rape plant response rating,[8]; [14],60
same,"Plant response rating, Oilseed Rape",[8]; [15],75
same,"Plant response rating, Oilseed Rape",[8]; [16],85
same,"Plant response rating (scale of 0 to 100), Oilseed Rape","[8]; Preemergence, 31 g ai/ha",0
same,"Plant response rating (scale of 0 to 100), Oilseed Rape","[8]; Preemergence, 62 g ai/ha",0
same,"Plant response rating, Oilseed Rape",[8]; [17],15
same,"Plant response rating, Oilseed Rape",[8]; [18],90
same,"Plant response rating, Oilseed Rape",[8]; [19],65
same,"Bromegrass, Downy plant response rating",[9]; [14],5
same,"Plant response rating, Bromegrass, Downy",[9]; [15],20
same,"Plant response rating, Bromegrass, Downy",[9]; [16],25
same,"Plant response rating (scale of 0 to 100), Bromegrass, Downy","[9]; Preemergence, 31 g ai/ha",0
same,"Plant response rating, Bromegrass, Downy",[9]; [20],0
same,"Plant response rating, Bromegrass, Downy",[9]; [17],20
same,"Plant response rating, Bromegrass, Downy",[9]; [18],30
same,"Plant response rating, Bromegrass, Downy",[9]; [19],10
same,Deadnettle plant response rating,[10]; [14],40
same,"Plant response rating, Deadnettle",[10]; [15],80
same,"Plant response rating, Deadnettle",[10]; [16],85
same,"Plant response rating (scale of 0 to 100), Deadnettle","[10]; Preemergence, 31 g ai/ha",0
same,"Plant response rating (scale of 0 to 100), Deadnettle","[10]; Preemergence, 62 g ai/ha",45
same,"Plant response rating, Deadnettle",[10]; [17],70
same,"Plant response rating, Deadnettle",[10]; [18],80
same,"Plant response rating, Deadnettle",[10]; [19],70
same,"Buckwheat, Wild plant response rating",[11]; [14],70
same,"Plant response rating, Buckwheat, Wild",[11]; [15],100
same,"Plant response rating, Buckwheat, Wild",[11]; [16],100
same,"Plant response rating (scale of 0 to 100), Buckwheat, Wild","[11]; Preemergence, 31 g ai/ha",0
same,"Plant response rating, Buckwheat, Wild",[11]; [20],0
same,"Plant response rating, Buckwheat, Wild",[11]; [17],10
same,"Plant response rating, Buckwheat, Wild",[11]; [18],25
same,"Plant response rating, Buckwheat, Wild",[11]; [19],100
same,Galium plant response rating,[12]; [14],90
same,"Plant response rating, Galium",[12]; [15],100
same,"Plant response rating, Galium",[12]; [16],100
same,"Plant response rating (scale of 0 to 100), Galium","[12]; Preemergence, 31 g ai/ha",50
same,"Plant response rating (scale of 0 to 100), Galium","[12]; Preemergence, 62 g ai/ha",70
same,"Plant response rating, Galium",[12]; [17],85
same,"Plant response rating, Galium",[12]; [18],98
same,"Plant response rating, Galium",[12]; [19],100
same,Chamomile plant response rating,[13]; [14],70
same,"Plant response rating, Chamomile",[13]; [15],98
same,"Plant response rating, Chamomile",[13]; [16],100
same,"Plant response rating (scale of 0 to 100), Chamomile","[13]; Preemergence, 31 g ai/ha",85
same,"Plant response rating (scale of 0 to 100), Chamomile","[13]; Preemergence, 62 g ai/ha",100
same,"Plant response rating, Chamomile",[13]; [17],100
same,"Plant response rating, Chamomile",[13]; [18],100
same,"Plant response rating, Chamomile",[13]; [19],95
